# Test results published in ChEMBL document CHEMBL5257071, “Total Synthesis and Biological Evaluation of the Anti-Inflammatory (13R,14S,15R)-13-Hydroxy-14-deoxyoxacyclododecindione” (J Nat Prod, 2023).
# Molecular target: Mothers against decapentaplegic homolog 2/homolog 3 (Homo sapiens, UniProt P84022+Q15796)
# Assay: Inhibition of TGF-beta induced Smad2/3 signaling in human HepG2 cells harboring pRL-EF1alpha, (CAGA)9x-MLP-Luc plasmid assessed as luciferase activity incubated for 24 hrs by Promega reporter rene assay
# Format: cell-based
row,IC50 [nM],Compound
1,137,C/C1=C\CCC(C)(O)C(C)OC(=O)Cc2c(Cl)c(O)cc(O)c2C1=O (centres undefined)
2,236,C/C1=C\C[C@@H](O)[C@H](C)[C@@H](C)OC(=O)Cc2c(Cl)c(O)cc(O)c2C1=O
3,30,C/C1=C\CCC(C)(C)C(C)OC(=O)Cc2c(Cl)c(O)cc(O)c2C1=O (centres undefined)
4,90,C/C1=C\CC[C@H](C)[C@@H](C)OC(=O)Cc2c(Cl)c(O)cc(O)c2C1=O
